Results reported in patent US8613927B2, “High affinity human antibodies to human nerve growth factor” (Regeneron Pharmaceuticals, Inc., priority 2007, dated 2013).

Experiments:
[1] = target: T1, human NT-3 binding to human TrkA-hFc (Homo sapiens, UniProt P20783); experiment: BIACORE, NT-3 binding to TrkA-hFc surface in presence of antibody; details: 20 nM NT-3 + 500 nM sample; normalized to IgG1 control
T1 sequence (P20783 139-257): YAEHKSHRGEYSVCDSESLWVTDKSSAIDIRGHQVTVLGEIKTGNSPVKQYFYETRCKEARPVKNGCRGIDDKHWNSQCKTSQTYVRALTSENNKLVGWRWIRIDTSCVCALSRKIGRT
Procedure: (§1) Human TrkA-hFc (9300 RU), human TrkB-hFc (6000 RU), human TrkC-hFc (9100 RU) and human p75-hFc (7500 RU) were covalently coupled to BIACORE® CM5 chip surfaces by amine-coupling procedure. […] The binding mixture was first incubated at room temperature to reach equilibrium (about 1 hr) and then was injected over the above TrkA-hFc, TrkB-hFc, TrkC-hFc and p75-hFc surfaces. The level of human NT-3 binding in each sample was measured. The binding RU from each sample mixture was normalized according to the RU value from the negative control sample (i.e., 20 nM human NT-3 with 500 nM AVASTIN®) and presented as % binding to Trk surfaces (Table 9).

[2] = target: T2, human NT-3 binding to human TrkB-hFc (Homo sapiens, UniProt P20783); experiment: BIACORE, NT-3 binding to TrkB-hFc surface in presence of antibody; details: 20 nM NT-3 + 500 nM sample; normalized to IgG1 control
T2 sequence (P20783 139-257): T1 sequence (P20783 139-257)
Procedure: as §1

[3] = target: T3, human NT-3 binding to human TrkC-hFc (Homo sapiens, UniProt P20783); experiment: BIACORE, NT-3 binding to TrkC-hFc surface in presence of antibody; details: 20 nM NT-3 + 500 nM sample; normalized to IgG1 control
T3 sequence (P20783 139-257): T1 sequence (P20783 139-257)
Procedure: as §1

[4] = target: T4, human NT-3 binding to human p75-hFc (Homo sapiens, UniProt P20783); experiment: BIACORE, NT-3 binding to p75-hFc surface in presence of antibody; details: 20 nM NT-3 + 500 nM sample; normalized to IgG1 control
T4 sequence (P20783 139-257): T1 sequence (P20783 139-257)
Procedure: as §1

[5] = tested on: C57BL/6 mice; experiment: Post-operative incision pain model, mechanical allodynia in von Frey test; assay type: in vivo, mouse; details: Table 17
Procedure: Thermal hyperalgesia was studied in the Hargreaves' test and mechanical allodynia was tested in the von Frey test. In this latter test, mice were tested after being acclimated for 2-3 hours for 4 days in an apparatus with a wire mesh floor. The test was performed by applying, in ascending order, a series of von Frey hairs through the wire mesh onto the plantar surface of the hind paw with the incision. A response was considered positive if the paw was raised from the platform in response to application of the filament. Starting from the thinnest hair, each von Frey filament was applied up to five times until a response was observed.

[6] = tested on: C57BL/6 male mice; experiment: Seltzer model of neuropathic pain, Hargreaves' test; assay type: in vivo, mouse
Text: Neuropathic pain. The mouse Seltzer model of neuropathic pain (Malmberg et al. (1998) Pain 76:215-222) was used with C57BL/6 male mice, in which a partial nerve injury was produced by tying a tight ligature with a 7-0 silk suture around approximately ⅓ to ½ the diameter of the sciatic nerve of one single thigh per mouse. Post-surgery, the mice were allowed to recover for at least two days and then they were studied for several weeks post-surgery for thermal hyperalgesia in the Hargreaves' test. Controls were sham-operated mice in which the sciatic nerve was exposed and elevated but not tied. Following surgery, the mice were tested at day […] and at day 7 post-surgery to confirm that the thermal hyperalgesia had developed.
Following the Seltzer surgery, mice were tested at days 5 and 7 post-surgery to confirm that the thermal hyperalgesia had developed.

Substance: IgG1 Control: negative binding control, IgG1 control (AVASTIN®; Genentech, CA)
- % binding to TrkA-hFc surface [1]: 100%
- % binding to TrkB-hFc surface [2]: 100%
- % binding to TrkC-hFc surface [3]: 100%
- % binding to p75-hFc surface [4]: 100%
- Paw Withdrawal Threshold ([5]; 25 mg/kg i.p. on day 1 post-surgery, Baseline): 1.314 ± 0.137 g
- Paw Withdrawal Threshold ([5]; 25 mg/kg i.p., 5 hr after treatment): 0.011 ± 0.002 g
- Paw Withdrawal Threshold ([5]; 25 mg/kg i.p., 22 hr after treatment): 0.029 ± 0.004 g
- Paw Withdrawal Threshold ([5]; 25 mg/kg i.p., 45 hr after treatment): 0.190 ± 0.135 g
- Paw Withdrawal Threshold ([5]; 25 mg/kg i.p., 70 hr after treatment): 0.194 ± 0.034 g
- Paw Withdrawal Threshold ([5]; 25 mg/kg i.p., Day 1 (post-surgery, before injection)): 0.011 ± 0.002 g
- pain relief ([6]; 50 mg/kg s.c. or i.p. at day 7 post-surgery, p<0.001-0.05): no effect
- mean percent change from Hargreaves baseline ([6]; Table 23, Seltzer, 100 mg/kg s.c. at day 7, day 0 after surgery): 0.0 ± 0.0%
- mean percent change from Hargreaves baseline ([6]; Table 23, Seltzer, 100 mg/kg s.c. at day 7, day 4): −46.9 ± 6.5%
- mean percent change from Hargreaves baseline ([6]; Table 23, Seltzer, 100 mg/kg s.c. at day 7, day 7): −55.3 ± 6.4%
- mean percent change from Hargreaves baseline ([6]; Table 23, Seltzer, 100 mg/kg s.c. at day 7, day 8): −55.6 ± 4.3%
- mean percent change from Hargreaves baseline ([6]; Table 23, Seltzer, 100 mg/kg s.c. at day 7, day 11): −57.3 ± 5.1%
- mean percent change from Hargreaves baseline ([6]; Table 23, Seltzer, 100 mg/kg s.c. at day 7, day 13): −59.7 ± 6.5%
- mean percent change from Hargreaves baseline ([6]; Table 23, Seltzer, 100 mg/kg s.c. at day 7, day 16): −51.2 ± 4.0%
- mean percent change from Hargreaves baseline ([6]; Table 23, Seltzer, 100 mg/kg s.c. at day 7, day 18): −57.7 ± 4.6%
- mean percent change from Hargreaves baseline ([6]; Table 23, Seltzer, 100 mg/kg s.c. at day 7, day 20): −53.2 ± 4.9%
- mean percent change from Hargreaves baseline ([6]; Table 23, Seltzer, 100 mg/kg s.c. at day 7, day 24): −54.9 ± 4.1%
- mean percent change from Hargreaves baseline ([6]; Table 23, Seltzer, 100 mg/kg s.c. at day 7, day 28): −51.81 ± 4.1%
- mean percent change from Hargreaves baseline ([6]; Table 23, Seltzer, 100 mg/kg s.c. at day 7, day 31): −49.7 ± 2.5%
- mean percent change from Hargreaves baseline ([6]; Table 23, Sham-operated, 100 mg/kg s.c. at day 7, day 0 after surgery): 0.0 ± 0.0%
- mean percent change from Hargreaves baseline ([6]; Table 23, Sham, 100 mg/kg s.c. at day 7, day 4): −7.2 ± 3.7%
- mean percent change from Hargreaves baseline ([6]; Table 23, Sham, 100 mg/kg s.c. at day 7, day 7): 8.7 ± 13.2%
- mean percent change from Hargreaves baseline ([6]; Table 23, Sham, 100 mg/kg s.c. at day 7, day 8): −9.4 ± 4.1%
- mean percent change from Hargreaves baseline ([6]; Table 23, Sham, 100 mg/kg s.c. at day 7, day 11): 14.7 ± 11.4%
- mean percent change from Hargreaves baseline ([6]; Table 23, Sham, 100 mg/kg s.c. at day 7, day 13): −6.9 ± 3.3%
- mean percent change from Hargreaves baseline ([6]; Table 23, Sham, 100 mg/kg s.c. at day 7, day 16): 2.3 ± 3.0%
- mean percent change from Hargreaves baseline ([6]; Table 23, Sham, 100 mg/kg s.c. at day 7, day 18): 0.2 ± 2.8%
- mean percent change from Hargreaves baseline ([6]; Table 23, Sham, 100 mg/kg s.c. at day 7, day 20): 3.6 ± 2.4%
- mean percent change from Hargreaves baseline ([6]; Table 23, Sham, 100 mg/kg s.c. at day 7, day 24): 1.5 ± 2.9%
- mean percent change from Hargreaves baseline ([6]; Table 23, Sham, 100 mg/kg s.c. at day 7, day 28): 0.7 ± 2.5%
- mean percent change from Hargreaves baseline ([6]; Table 23, Sham, 100 mg/kg s.c. at day 7, day 31): 1.1 ± 2.3%
- mean percent change from Hargreaves baseline ([6]; Table 24, 100 mg/kg s.c. injected Day 7 post-surgery, Baseline): 0.0 ± 0.0%
- mean percent change from Hargreaves baseline ([6]; Table 24, 100 mg/kg s.c. injected Day 14 post-surgery, Baseline): 0.0 ± 0.0%
- mean percent change from Hargreaves baseline ([6]; Table 24, 100 mg/kg s.c. injected Day 21 post-surgery, Baseline): 0.0 ± 0.0%
- mean percent change from Hargreaves baseline ([6]; Table 24, injected Day 7, Day 5 after surgery): −53.5 ± 5.9%
- mean percent change from Hargreaves baseline ([6]; Table 24, injected Day 7, Day 8): −56.7 ± 3.8%
- mean percent change from Hargreaves baseline ([6]; Table 24, injected Day 7, Day 10): −64.3 ± 2.6%
- mean percent change from Hargreaves baseline ([6]; Table 24, injected Day 7, Day 14): −66.9 ± 5.1%
- mean percent change from Hargreaves baseline ([6]; Table 24, injected Day 7, Day 15): −60.6 ± 4.0%
- mean percent change from Hargreaves baseline ([6]; Table 24, injected Day 7, Day 17): −58.9 ± 3.5%
- mean percent change from Hargreaves baseline ([6]; Table 24, injected Day 7, Day 21): −54.1 ± 9.6%
- mean percent change from Hargreaves baseline ([6]; Table 24, injected Day 7, Day 22): −56.3 ± 4.9%
- mean percent change from Hargreaves baseline ([6]; Table 24, injected Day 7, Day 24): −55.6 ± 5.1%
- mean percent change from Hargreaves baseline ([6]; Table 24, injected Day 7, Day 28): −54.1 ± 3.5%
